SMILES strings stand for the structures.

This passage reports IC50 results from US20240343704A1, “HALO-SUBSTITUTED AMINO PYRIDINE COMPOUNDS AS INHIBITORS OF THE HAEMATOPOIETIC PROGENITOR KINASE 1 (HPK1)” (priority 2021, published 2024).

For test [1], the target named is T1, Recombinant (1-346) HPK1 (h) (Homo sapiens, UniProt Q92918).
T1 construct: Recombinant (1-346) HPK1 (h) is incubated with 8 mM MOPS pH 7.0
T1 sequence (Q92918 1-346): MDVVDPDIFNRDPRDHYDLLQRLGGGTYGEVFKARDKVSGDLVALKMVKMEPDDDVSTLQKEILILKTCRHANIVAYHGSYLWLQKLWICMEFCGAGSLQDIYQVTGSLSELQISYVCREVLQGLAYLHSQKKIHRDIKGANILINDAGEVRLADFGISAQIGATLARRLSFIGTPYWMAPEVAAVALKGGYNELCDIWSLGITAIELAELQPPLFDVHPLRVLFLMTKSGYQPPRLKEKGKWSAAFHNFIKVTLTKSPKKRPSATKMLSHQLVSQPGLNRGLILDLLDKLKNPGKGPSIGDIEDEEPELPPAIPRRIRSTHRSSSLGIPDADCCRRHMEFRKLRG
The test is described as follows: HPK1 Human STE Kinase Enzymatic Radiometric Assay. Type of test: biochemical. To be noted: read-out: HPK1 IC50 nM Range*. On the procedure: A stock solution of 10 mM of test compound is prepared in DMSO. The compound plate was prepared by 3-fold and 9-point serial dilutions. […] The reaction is initiated by The addition of the Mg/ATP mix. After incubation for 40 minutes at RT, the reaction is stopped by the addition of phosphoric acid to a concentration of 0.5%.

The target of test [2] is Lck (h) (Homo sapiens, UniProt P06239). In words: Lck Human  Kinase Enzymatic Radiometric Assay. Type of test: biochemical. To be noted: read-out: Lck IC50 nM Range*. A digest of the protocol: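 Substrate 33P-incorporation measured by scintillation counting after spotting on P30 filtermat and phosphoric acid washes. Human Lck reacted 40 min at RT in 50 mM Tris pH 7.5 with 10 mM MgAcetate, [gamma-33P]-ATP, 250 uM Cdc2 peptide, 0.1 mM EGTA and 0.1 mM Na3VO4.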
Chain of Lck (h) (P06239 whole entry): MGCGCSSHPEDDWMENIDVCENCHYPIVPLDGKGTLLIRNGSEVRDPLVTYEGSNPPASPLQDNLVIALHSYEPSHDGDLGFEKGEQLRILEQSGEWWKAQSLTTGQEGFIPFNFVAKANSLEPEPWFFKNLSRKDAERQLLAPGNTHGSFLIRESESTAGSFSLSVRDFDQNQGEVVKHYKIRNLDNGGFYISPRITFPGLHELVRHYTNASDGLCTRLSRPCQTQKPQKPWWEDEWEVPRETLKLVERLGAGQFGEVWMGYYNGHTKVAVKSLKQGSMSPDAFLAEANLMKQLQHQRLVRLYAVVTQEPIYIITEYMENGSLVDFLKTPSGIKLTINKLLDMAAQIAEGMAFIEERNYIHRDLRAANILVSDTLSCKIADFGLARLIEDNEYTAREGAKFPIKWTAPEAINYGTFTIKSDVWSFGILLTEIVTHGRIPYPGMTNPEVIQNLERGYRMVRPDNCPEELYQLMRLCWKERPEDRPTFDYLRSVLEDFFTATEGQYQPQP

On to `Cc1[nH]c(=O)c2c(F)cc(-c3cc(-c4ccc(N5CCN(C(C)C)CC5)cc4)c(F)nc3N)cc2c1F` [I-481, 6-(2-amino-6-fluoro-5-(4-(4-isopropylpiperazin-1-yl)phenyl)pyridin-3-yl)-4,8-difluoro-3-methylisoquinolin-1(2H)-one], for which the IC50 was 0.1 to 10 nM in test [1] and more than 1000 nM in test [2].

`CN(C)Cc1cc(-c2cc(-c3ccc4c(=O)[nH]cc(F)c4c3)c(N)nc2F)ccc1C1CCOCC1` [I-503, 6-(2-amino-5-(3-((dimethylamino)methyl)-4-(tetrahydro-2H-pyran-4-yl)phenyl)-6-fluoropyridin-3-yl)-4-fluoroisoquinolin-1(2H)-one]: the results for the 50% inhibitory concentration (IC50) in test [1] and in test [2] were 0.1 to 10 nM and more than 1000 nM, respectively.

Regarding `COC1CCN(Cc2cc(-c3cc(-c4cc5c(cc4F)C(=O)NCC5)c(N)nc3F)ccc2N2CCOCC2)C1` (stereo not shown) [I-543, 6-(2-amino-6-fluoro-5-(3-((3-methoxypyrrolidin-1-yl)methyl)-4-morpholinophenyl)pyridin-3-yl)-7-fluoro-3,4-dihydroisoquinolin-1(2H)-one], the IC50 in test [1] was in the range of 0.1 to 10 nM; in test [2] it was 11 to 100 nM.

As to `Nc1nc(F)c(-c2ccc(N3CCN(CC4CC4)CC3)cc2)cc1-c1cc2c(F)c[nH]c(=O)c2cc1F` [I-548, 6-(2-amino-5-(4-(4-(cyclopropylmethyl)piperazin-1-yl)phenyl)-6-fluoropyridin-3-yl)-4,7-difluoroisoquinolin-1(2H)-one], the IC50 in test [1] was 0.1 to 10 nM; in test [2] it was more than 1000 nM.

With `CN(C)Cc1nc(-c2cc(-c3ccc4c(c3)CCNC4=O)c(N)nc2F)ccc1N1CCOCC1` [I-551, 6-(6′-amino-6-((dimethylamino)methyl)-2′-fluoro-5-morpholino-[2,3′-bipyridin]-5′-yl)-3,4-dihydroisoquinolin-1(2H)-one], the figures for the 50% inhibitory concentration (IC50) in test [1] and in test [2] were 0.1 to 10 nM and more than 1000 nM, respectively.

For `CCN(C)Cc1nc(-c2cc(-c3ccc4c(c3)CCNC4=O)c(N)nc2F)ccc1N1CCOCC1` [I-580, 6-(6′-amino-6-((ethyl(methyl)amino)methyl)-2′-fluoro-5-morpholino-[2,3′-bipyridin]-5′-yl)-3,4-dihydroisoquinolin-1(2H)-one], the figures for the IC50 in test [1] and in test [2] were 0.1 to 10 nM and more than 1000 nM, respectively.

As for `CC(=O)N1CCN(c2ccc(-c3cc(-c4ccc5c(c4)CCNC5=O)c(N)nc3F)nc2)CC1` [I-591, 6-(5-(4-acetylpiperazin-1-yl)-6′-amino-2′-fluoro-[2,3′-bipyridin]-5′-yl)-3,4-dihydroisoquinolin-1(2H)-one], the IC50 is 0.1 to 10 nM in test [1] and more than 1000 nM in test [2].

As for `Nc1nc(F)c(-c2ccc(N3CCOCC3)c(CN3CCC3)c2F)cc1-c1ccc2c(c1)CCNC2=O` [I-609, 6-(2-amino-5-(3-(azetidin-1-ylmethyl)-2-fluoro-4-morpholinophenyl)-6-fluoropyridin-3-yl)-3,4-dihydroisoquinolin-1(2H)-one], the IC50 in test [1] is 11 to 100 nM; in test [2], more than 1000 nM.
